This note sets out measurements from patent US20180169045A1, “AMINO ACID COMPOSITIONS AND METHODS FOR THE TREATMENT OF LIVER DISEASES” (AXCELLA HEALTH INC., priority 2016, published 2018).

Experiment [1] relates to LX-2 hepatic stellate cells. Briefly: TGFβ1-induced fibrogenic gene expression (Col1a1, Acta2, Timp2) in LX-2 cells, qRT-PCR. Type of experiment: cell-based. Also on record: key to Col1a1 gene expression, Mean: relative expression normalized to β-actin by ΔΔCt method. Conditions: for Col1a1 gene expression, Mean: TGFβ1 Yes. Background: Quantitative PCR measures a nucleic acid by following its amplification.

A further experiment has as its system FATZO mice. Briefly: FATZO mouse NASH model (Example 15): liver histology (NAS, fibrosis score, Sirius Red, Oil Red O). The experiment is classed as in vivo. To be noted: FATZO mice on WDF, 4 weeks. The source says: NASH was induced in 60 male FATZO mice by a western diet (Research Diet # D12079B; fat 40% kcal, protein 17% kcal, carbohydrate 43% kcal) supplemented with 5% fructose in the drinking water (WDF) during a 16 week induction phase. Diets and water were available ad libitum. Littermate control male FATZO mice fed with a control diet (n=6, Purina #5008; fat 17% kcal, protein 27% kcal, carbohydrate 56% kcal) and sterile water were set up for control purpose. Mice were housed in plastic cages with microisolator. Sterilized bedding was replaced once a week. Mice were housed three per cage and maintained on a twelve hour light cycle throughout study duration. Room temperature was monitored daily and maintained at 22-25° C. Body weight was recorded every week during the induction phase. […]
[…], […]+G, LRQNAC, OCA and Vehicle were administered by oral gavage at a volume of 10 mL/kg throughout the study. Dosages were calculated by daily body weight. […]
The livers were evaluated using the NASH liver criteria for scoring. In this mouse study, one cross section of liver for each case was analyzed with the NASH score system. […] The NAS can range from 0 to 8 and is calculated by the sum of scores of steatosis (0-3), lobular inflammation (0-3) and hepatocyte ballooning (0-2) from H&E stained sections. Fibrosis was scored (0-4) from picrosirius red stained slides. […]

A further experiment has as its system STAM™ mice. Briefly: STAM mouse NASH model (Example 6): activated hepatic stellate cells, α-smooth muscle actin staining. The experiment is classed as in vivo. Conditions: individual animals. On the procedure: Amino Acid Composition A-1 and Obeticholic acid (6α-ethyl-chenodeoxycholic acid; “OCA”) were tested for their ability to treat NASH in the STAM™ model (Stelic Institute & Co., Tokyo, Japan; Saito K. et al., 2015 Sci Rep 5:12466). Two additional groups of normal C57BL/6 mice fed standard chow and vehicle treated STAM™ mice were included as controls. All animals receiving treatment or vehicle were treated starting at 6 weeks until 9 weeks of age. Compounds were administered via oral gavage, with a dose volume of 10 ml/kg. Amino Acid Composition A-1 was administered twice daily at a dose of 1500 mg/kg, and OCA was administered once daily at a dose of 30 mg/kg.
STAM™ is a model for non-alcoholic steatohepatitis (NASH) and hepatocellular carcinoma (HCC), developed by SMC Laboratories, Inc. and created by the combination of chemical and dietary interventions using C57BL/6 mice (Saito K. et al., 2015 Sci Rep 5:12466). Mice are treated with a low dose of streptozotocin at birth and fed a high fat diet starting at 4 weeks. Evidence of fatty liver is present by 5 weeks, followed by NASH by 7 weeks and fibrosis by 9 weeks. […]
Liver sections of all mice were stained for the marker α-smooth muscle actin (αSMA) to identify activated hepatic stellate cells. Images were quantified using the percent of positively stained area was used as a measure of stellate cell activation. […]

[2] abbreviates: individual amino acid at 1X HMDB concentration.
Where [3] appears, read: individual amino acid at 50X HMDB concentration.

On to `NC(=O)CC[C@H](N)C(=O)O` [GLN], for which the “Col1a1 gene expression, Mean” value is reported as 2.340 in experiment [1] (setting [2]) and 2.194 in experiment [1] (setting [3]).
The matching figures for `N[C@@H](CS)C(=O)O` [CYS]: 2.491 and 1.695.
For the compound `N=C(N)NCCC[C@H](N)C(=O)O` [ARG], the “Col1a1 gene expression, Mean” value amounted to 1.620 in experiment [1] (setting [2]) and 1.970 in experiment [1] (setting [3]).
With `CC[C@H]1[C@@H](O)[C@@H]2[C@H](CC[C@]3(C)[C@@H]([C@H](C)CCC(=O)O)CC[C@@H]23)[C@@]2(C)CC[C@@H](O)C[C@@H]12` [OCA, 6α-ethyl-chenodeoxycholic acid], the “NAFLD activity score (NAS) compared to vehicle, in words” value with FATZO mice was “no significant effect”. The “Activated hepatic stellate cells (mean positively stained area, α-smooth muscle actin): raw data” value in the experiment on STAM™ mice worked out at 1.5.
Turning to `CC(C)[C@H](N)C(=O)O` [VAL], the results for the “Col1a1 gene expression, Mean” value in experiment [1] (setting [2]) and in experiment [1] (setting [3]) were 2.093 and 2.203, respectively.
For `CC(C)C[C@H](N)C(=O)O` [LEU] the same measures were 1.901 and 2.372.
For `N[C@@H](CS)C(=O)O` [Cysteine, L-Cysteine], the “Col1a1 expression of individual amino acids, in words” value in experiment [1] (individual amino acid at 50× HMDB derived concentration) is given as “significant decrease”.
